Converted amounts (≈) assume the structure as drawn. “And” between values parts separate entries of the source, which are not always exact repeats. Equal entries are not always repeated.
How the values were obtained:
[1] = biological target: T1, Aurora kinase A (Homo sapiens, UniProt O14965)
T1 sequence (O14965 whole entry): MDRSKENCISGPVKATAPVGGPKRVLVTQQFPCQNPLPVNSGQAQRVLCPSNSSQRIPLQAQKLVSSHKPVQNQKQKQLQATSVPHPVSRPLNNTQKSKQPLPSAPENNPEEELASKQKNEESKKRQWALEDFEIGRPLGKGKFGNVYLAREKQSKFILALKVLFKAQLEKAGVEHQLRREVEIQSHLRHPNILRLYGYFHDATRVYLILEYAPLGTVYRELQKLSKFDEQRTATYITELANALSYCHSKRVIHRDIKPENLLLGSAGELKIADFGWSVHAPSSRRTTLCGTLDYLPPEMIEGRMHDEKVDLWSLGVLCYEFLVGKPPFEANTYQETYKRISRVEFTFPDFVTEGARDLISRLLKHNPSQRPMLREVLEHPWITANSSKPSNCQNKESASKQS
Description: (§1) Inhibition of human recombinant Aurora A

[2] = biological target: Aurora kinase B (Homo sapiens, UniProt Q96GD4)
Aurora kinase B, sequence (Q96GD4 whole entry): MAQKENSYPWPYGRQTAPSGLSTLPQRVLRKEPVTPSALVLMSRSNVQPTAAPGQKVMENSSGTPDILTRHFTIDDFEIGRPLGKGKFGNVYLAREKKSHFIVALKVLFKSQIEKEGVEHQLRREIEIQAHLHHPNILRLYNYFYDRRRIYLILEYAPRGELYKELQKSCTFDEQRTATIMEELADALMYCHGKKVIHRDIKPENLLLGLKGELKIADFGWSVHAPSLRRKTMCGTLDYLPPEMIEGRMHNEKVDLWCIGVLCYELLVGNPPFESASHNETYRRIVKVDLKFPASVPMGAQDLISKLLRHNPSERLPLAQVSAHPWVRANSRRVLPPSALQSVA
Description: Inhibition of human recombinant Aurora B

[3] = biological target: SW-620
Description: inhibition of histone-H3 phosphorylation following 24 hr incubation in SW620 tumor cells

[4] = P450 isoforms 3A4; type: ADME
[5] = physchem; details: octanol/water, pH 7.4
[6] = aqueous solubility; type: physicochemical; details: read-out: S
[7] = protein binding; type: ADME; details: read-out: PB (converted)
[8] = rat
[9] = in vivo; details: rat
[10] = solubility (tris buffer pH9); type: physicochemical; details: pH 9, read-out: S
[11] = biological target: T1, Aurora kinase A; remark: listed apart in the source
Description: as §1

Row | SMILES | Ki [1] | Ki [2] | Ki [3] | also measured
1 | COc1cc2c(Nc3cc(CC(=O)Nc4cccc(F)c4F)[nH]n3)ncnc2cc1OCCCN1CCN(CCO)CC1 | 55 nM | < 1 nM | 71 nM | –
2 | COc1cc2c(Nc3cc(CC(=O)Nc4cccc(F)c4F)[nH]n3)ncnc2cc1OCCCN1CCC(CCO)CC1 | 280 nM | < 1 nM | 130 nM | –
3 | COc1cc2c(Nc3cc(CC(=O)Nc4cccc(F)c4F)[nH]n3)ncnc2cc1OCCCN(CCO)CC(C)C | 18 nM | < 1 nM | < 1 nM | IC50 [4]: 400 nM; logD [5]: 3.6
4 | COc1cc2c(Nc3ncc(CC(=O)Nc4cccc(F)c4)s3)ncnc2cc1OCCCN1CCC(COP(=O)(O)O)CC1 | – | – | – | solubility [6]: > 10000 µg/mL
5 | COc1cc2c(Nc3cc(CC(=O)Nc4cccc(F)c4F)[nH]n3)ncnc2cc1OCCCN1CCC[C@@H]1CO | 94 nM | 1 nM | 42 nM | fraction unbound [7]: 0.15; AB [8]: 85%; clearance [9]: 63 mL/min/kg; logD [5]: 2
6 | COc1cc2c(Nc3cc(CC(=O)Nc4cccc(F)c4F)[nH]n3)ncnc2cc1OCCCN1CCC[C@@H]1COP(=O)(O)O | – | – | – | solubility [10]: 25 mg/mL (≈ 38.6 mM)
7 | COc1cc2c(Nc3cc(CC(=O)Nc4cccc(O)c4)[nH]n3)ncnc2cc1OCCCN1CCC(CO)CC1 | 4000 nM | – | > 10000 nM | Ki [11]: 140 nM
8 | COc1cc2c(Nc3cc(CC(=O)Nc4cccc(F)c4F)[nH]n3)ncnc2cc1OCCCN1CCC(O)CC1 | 220 nM | < 1 nM | 78 nM | –
9 | COc1cc2c(Nc3cc(CC(=O)Nc4cccc(F)c4)[nH]n3)ncnc2cc1OCCCNCCO | 690 nM | 1 nM | 630 nM | –
10 | CCN(CCO)CCCOc1cc2ncnc(Nc3cc(CC(=O)Nc4cccc(F)c4F)[nH]n3)c2cc1OC | 360 nM | < 1 nM | 45 nM | fraction unbound [7]: 0.17; IC50 [4]: > 10000 nM; logD [5]: 1.9
11 | COc1cc2c(Nc3ncc(CC(=O)Nc4cccc(F)c4)s3)ncnc2cc1OCCCN1CCC(CO)CC1 | – | – | 5 nM | fraction unbound [7]: 0.02
12 | COc1cc2c(Nc3cc(CC(=O)Nc4cc(F)cc(F)c4)[nH]n3)ncnc2cc1OCCCN1CCC(CO)CC1 | – | – | 370 nM | –
13 | COc1cc2c(Nc3cc(CC(=O)Nc4cccc(Cl)c4)[nH]n3)ncnc2cc1OCCCN1CCC(CO)CC1 | 450 nM | – | 1200 nM | Ki [11]: 8 nM
14 | CCN(CCCOc1ccc2c(Nc3cc(CC(=O)Nc4cccc(F)c4)n[nH]3)ncnc2c1)CCOP(=O)(O)O [BARASERTIB] | – | – | – | solubility [10]: 25 mg/mL (≈ 42.5 mM)
15 | COc1cc2c(Nc3cc(CC(=O)Nc4cccc(F)c4F)[nH]n3)ncnc2cc1OCCCN1CCC(CO)CC1 | – | – | 540 nM | –
16 | COc1cc2c(Nc3cc(CC(=O)Nc4cccc(C(F)(F)F)c4)[nH]n3)ncnc2cc1OCCCN1CCC(CO)CC1 | – | 510 nM | 1800 nM | Ki [11]: 13 nM
17 | COc1cc2c(Nc3cc(CC(=O)Nc4ccccc4)[nH]n3)ncnc2cc1OCCCN1CCC(CO)CC1 | 1600 nM and 1200 nM | – | – | Ki [11]: 18 nM

Row | SMILES | Ki [1] | Ki [2] | Ki [3] | also measured
18 | O=C(Cc1cc(Nc2ncnc3cc(OCCCN4CCC[C@@H]4CO)ccc23)n[nH]1)Nc1cccc(F)c1 | 1400 nM | < 1 nM | 24 nM | –
19 | COc1cccc(NC(=O)Cc2cc(Nc3ncnc4cc(OCCCN5CCC(CO)CC5)c(OC)cc34)[nH]n2)c1 | – | – | 5500 nM | –
20 | COc1cc2c(Nc3cc(CC(=O)Nc4cccc(F)c4F)[nH]n3)ncnc2cc1OCCCN1CCC[C@H]1CO | 39 nM | < 1 nM | 45 nM | –
21 | CCCN(CCO)CCCOc1ccc2c(Nc3cc(CC(=O)Nc4cccc(F)c4F)[nH]n3)ncnc2c1 | 350 nM | < 1 nM | 2 nM | –
22 | O=C(Cc1cc(Nc2ncnc3cc(OCCCN4CCC[C@@H]4COP(=O)(O)O)ccc23)n[nH]1)Nc1cccc(F)c1F | – | – | – | solubility [10]: 25 mg/mL (≈ 40.5 mM)
23 | CCN(CCO)CCCOc1ccc2c(Nc3cc(CC(=O)Nc4cccc(F)c4F)[nH]n3)ncnc2c1 | 160 nM | < 1 nM | 7 nM | –
24 | O=C(Cc1cc(Nc2ncnc3cc(OCCCN4CCC[C@@H]4CO)ccc23)n[nH]1)Nc1cccc(F)c1F | 950 nM | < 1 nM | 5 nM | AB [8]: 89%; clearance [9]: 15 mL/min/kg; logD [5]: 2.1
25 | CCCN(CCO)CCCOc1ccc2c(Nc3cc(CC(=O)Nc4cccc(F)c4)[nH]n3)ncnc2c1 | 980 nM | < 1 nM | 7 nM | –
26 | COc1cc2c(Nc3cc(CC(=O)Nc4ccccc4F)[nH]n3)ncnc2cc1OCCCN1CCC(CO)CC1 | 1400 nM and 470 nM | – | – | Ki [11]: 14 nM
27 | COc1cc2c(Nc3cc(CC(=O)Nc4cccc(C#N)c4)[nH]n3)ncnc2cc1OCCCN1CCC(CO)CC1 | 2600 nM | – | > 10000 nM | Ki [11]: 83 nM
28 | CCN(CCO)CCCOc1cc2ncnc(Nc3cc(CC(=O)Nc4cccc(F)c4)[nH]n3)c2cc1OC | 190 nM | 1 nM | 270 nM | fraction unbound [7]: 0.05; logD [5]: 2.1
29 | COc1cc2c(Nc3cc(CC(=O)Nc4cccc(F)c4)[nH]n3)ncnc2cc1OCCCN(C)CCO | 65 nM | < 1 nM | 120 nM | –
30 | COc1cc2c(Nc3cc(CC(=O)Nc4cccc([N+](=O)[O-])c4)[nH]n3)ncnc2cc1OCCCN1CCC(CO)CC1 | 890 nM | – | > 10000 nM | Ki [11]: 39 nM
31 | COc1cc2c(Nc3cc(CC(=O)Nc4ccc(F)cc4)[nH]n3)ncnc2cc1OCCCN1CCC(CO)CC1 | 2000 nM | – | 2600 nM | Ki [11]: 30 nM
32 | CCCN(CCO)CCCOc1cc2ncnc(Nc3cc(CC(=O)Nc4cccc(F)c4)[nH]n3)c2cc1OC | 220 nM | 2 nM | 290 nM | –
33 | CCCN(CCCOc1cc2ncnc(Nc3cc(CC(=O)Nc4cccc(F)c4F)[nH]n3)c2cc1OC)CCOP(=O)(O)O | – | – | – | solubility [10]: 25 mg/mL (≈ 38.5 mM)
34 | COc1cc2c(Nc3cc(CC(=O)Nc4cccc(F)c4)[nH]n3)ncnc2cc1OCCCN1CCC[C@@H]1CO | 110 nM | 1 nM | 330 nM | fraction unbound [7]: 0.05

From ChEMBL document CHEMBL1147984, “Discovery, synthesis, and in vivo activity of a new class of pyrazoloquinazolines as selective inhibitors of aurora B kinase” (J Med Chem, 2007)
